{"source": "paper PMC4110944", "about": "“Probing SH2-domains using Inhibitor Affinity Purification (IAP)” (Proteome Science, 2014)", "key": {"PIK3R2": {"target": "T1, PIK3R2 (Homo sapiens, UniProt O00459)", "T1 construct": "Dose response pull-down experiments were accomplished in Colo205 lysates; endogenous in cells; host or cells: Colo205 cell lysate", "test": "Dose response competition pull-down with free compound 1 against immobilized probe 1 in Colo205 lysate", "assay_type": "binding", "conditions": "Colo205 cell lysate, free compound 1 competing with immobilized probe 1", "procedure": "(§1) A competitive binding experiment was performed to validate the results obtained under pervanadate-depletion conditions (Additional file 4). Dose response pull-down experiments were accomplished in Colo205 lysates with increasing concentrations of the free compound 1 that competes with the immobilized probe 1 for SH2 domain binding (Additional file 5). […] Additionally, these findings underscore the results of the pervanadate depletion experiments that indicate that the regulatory PI3 kinase subunits specifically interact with probe 1 via an SH2 domain. The regulatory PI3K subunits PI3KR1 and PI3KR2 contain a C-terminal and an N-terminal SH2 domain. The real IC50 values are likely smaller than the measured values for PI3KR1 and PI3KR2, since it is impossible to distinguish whether one of the two domains or both simultaneously interact with equal affinity with probe 1[35].\n(§2) Figure 5 Dose-response curves. Pulldown experiments were conducted using probe 1 with Colo205 cell lysate and increasing concentrations of the free compound 1.\n(§3) SH2 probe pulldowns were performed as described previously. […]\n(§4) Raw MS data were processed by MaxQuant (v1.4.0.5) for peak detection and quantification […]"}, "PIK3R1": {"target": "T2, PIK3R1 (Homo sapiens, UniProt P27986)", "T2 construct": "Dose response pull-down experiments were accomplished in Colo205 lysates; endogenous in cells; host or cells: Colo205 cell lysate", "test": "Dose response competition pull-down with free compound 1 against immobilized probe 1 in Colo205 lysate", "assay_type": "binding", "conditions": "Colo205 cell lysate, free compound 1 competing with immobilized probe 1", "procedure": "as §1, §2, §3, §4"}, "SH2 proteins": {"system": "SH2 proteins", "test": "Dose response competition pull-down in Colo205 lysate", "assay_type": "binding, human", "conditions": "increasing free compound 1", "procedure": "as §1, §3"}, "tubulin beta chain (TBB)": {"target": "T3, tubulin beta chain (TBB) (Homo sapiens, UniProt P07437)", "T3 construct": "Dose response pull-down experiments were accomplished in Colo205 lysates; endogenous in cells; host or cells: Colo205 cell lysate", "test": "Dose response competition pull-down in Colo205 lysate", "assay_type": "binding", "conditions": "increasing free compound 1", "procedure": "as §1, §3"}, "regulatory PI3K subunits": {"system": "regulatory PI3K subunits", "test": "Dose response competition pull-down with free compound 1 against immobilized probe 1 in Colo205 lysate", "assay_type": "binding, human", "conditions": "Colo205 lysates, competition with immobilized probe 1; read-out: IC50 values for the captured regulatory PI3K subunits", "procedure": "as §1, §3"}}}
{"compound": "CCCCCN(CCOCCOCCN)C(=O)[C@H](CCC(=O)O)NC(=O)[C@H](Cc1ccc(C(F)(F)P(=O)(O)O)cc1)NC(C)=O", "note": "[probe 1]", "values": [{"measurement": "IC50", "setting": "PIK3R2", "result": 22.6, "unit": "µM"}, {"measurement": "IC50", "setting": "PIK3R1", "result": 10.3, "unit": "µM"}, {"measurement": "dose dependence of captured SH2 proteins in the competition experiment", "setting": "SH2 proteins", "result": "dose dependent decrease"}, {"measurement": "dose dependence of tubulin beta chain (TBB) in the competition experiment", "setting": "tubulin beta chain (TBB)", "result": "do not show dose dependent decrease"}, {"measurement": "IC50", "setting": "regulatory PI3K subunits", "result": "10 to 23", "unit": "µM"}]}
